From patent US20100280056A1, “IDENTIFICATION OF SUBJECTS LIKELY TO BENEFIT FROM STATIN THERAPY” (The Govt. of the U. S. as Represented by the Secretary of …, priority 2007, published 2010) come the findings set out here.

The subject of the test is colon cancer cell lines. Kind of test: Total cholesterol content of colon cancer cell lines with and without atorvastatin (Cholesterol/Cholesteryl Ester Quantification Kit). The settings on record: 25 μM atorvastatin, 24 hours, serum-free medium; cell lines with rs12654264 A allele compared to T allele (FIG. 4). In kind it is cell-based.

Description: Microsatellite stable (MSS) colon cancer cell lines (SW480, SW620, HT29, WiDr, and SW1417) were cultured in RPMI (supplemented with 10% Fetal Bovine Serum, 100 IU/mL of Penicillin, 100 IU/mL of Streptomycin, and 1× Non-Essential Amino Acid) at 37° C. in an atmosphere of 5% CO2. The cells were trypsinized and washed with PBS twice. […] The cholesterol level of each colon cancer line was measured using Cholesterol/Cholesteryl Ester Quantification Kit from Abcam (Cambridge, Mass.). Cells were plated into 6-well plates to reach approximate confluency of 70%. After overnight incubation, the cells were treated with 25 μM atorvastatin diluted in serum-free DMEM/F12 50:50 (supplemented with 100 IU/mL of Penicillin, 100 IU/mL of Streptomycin, and 1× Non-Essential Amino Acid) for 24 hours at 37° C., 5% CO2. After treatment, the cells were trypsinized and counted to 1×10^6 cells. The cells were pelleted, washed with PBS twice, and resuspended in 200 μl of pure chloroform with 1% Triton® X-100. The cell suspension was vortexed for 15 seconds, and centrifuged at maximum speed for 10 minutes. The lower (organic) phase was collected and air dried at 50° C., followed by vacuum drying for 30 minutes to remove the chloroform. The dried lipids were resuspended with 100 μl of the Cholesterol Reaction Buffer provided in the kit, and vortexed for 5 minutes vigorously at room temperature. […]

With `CC(C)c1c(C(=O)Nc2ccccc2)c(-c2ccccc2)c(-c2ccc(F)cc2)n1CC[C@@H](O)C[C@@H](O)CC(=O)O` [atorvastatin], the statin-dependent cholesterol reduction result is recorded as “significantly greater statin-dependent cholesterol reduction”.
